Activity calls are given as the source filed them. The rule behind the calls is not given here.
What was measured:
[1] = molecular target: Cytochrome P450 3A4 (Homo sapiens, UniProt P08684); test: Inhibition of CYP3A4 in human liver microsomes preincubated for 10 mins followed by NADPH/substrate addition measured after 20 mins by LC-MS/MS analysis
[2] = test system: MCF7; test: Induction of apoptosis in human MCF7 cells assessed as late apoptotic cells at 5 uM after 48 hrs by Annexin V-FITC/propidium iodide staining based flow cytometry (reference value: 0%); format: functional
[3] = test system: MCF7; test: Induction of apoptosis in human MCF7 cells assessed as live cells at 5 uM after 48 hrs by Annexin V-FITC/propidium iodide staining based flow cytometry (reference value: 99.9%); format: functional
[4] = test system: MCF7; test: Upregulation of p27 protein expression in human MCF7 cells after 24 hrs by Western blot method; format: functional, cell-based
[5] = test system: MCF7; test: Induction of apoptosis in human MCF7 cells after 48 hrs by Annexin V-FITC/propidium iodide staining based flow cytometry; format: functional, cell-based
[6] = test system: MCF7; test: Induction of apoptosis in human MCF7 cells assessed as live cells at 1 uM after 48 hrs by Annexin V-FITC/propidium iodide staining based flow cytometry (reference value: 99.9%); format: functional
[7] = test system: MCF7; test: Downregulation of full length PARP protein expression in human MCF7 cells up to 10 uM after 24 hrs by Western blot method; format: functional, cell-based
[8] = test system: MCF7; test: Upregulation of cleaved caspase-3 protein expression in human MCF7 cells after 24 hrs by Western blot method; format: functional, cell-based
[9] = test system: MCF7; test: Induction of apoptosis in human MCF7 cells assessed as necrotic cells at 10 uM after 48 hrs by Annexin V-FITC/propidium iodide staining based flow cytometry (reference value: 0%); format: functional
[10] = test system: MCF7; test: Downregulation of CyclinA protein expression in human MCF7 cells up to 10 uM after 24 hrs by Western blot method; format: functional, cell-based
[11] = test system: MCF7; test: Induction of DNA double strand breaks in human MCF7 cells assessed as increase in 53BP1 level after 24 hrs by Western blot analysis; format: functional, cell-based
[12] = test system: MCF7; test: Cell cycle arrest in human MCF7 cells assessed as accumulation at G0/G1 phase at 1 uM after 24 hrs by propidium iodide staining based flow cytometry (reference value: 17.67 +/- 1.25%); format: functional
[13] = test system: MCF7; test: Downregulation of CDK2 protein expression in human MCF7 cells up to 10 uM after 24 hrs by Western blot method; format: functional, cell-based
[14] = test system: MCF7; test: Upregulation of p18 protein expression in human MCF7 cells after 24 hrs by Western blot method; format: functional, cell-based
[15] = test system: MCF7; test: Cell cycle arrest in human MCF7 cells assessed as accumulation at G2/M phase at 5 uM after 24 hrs by propidium iodide staining based flow cytometry (reference value: 22.61 +/- 1.55%); format: functional
[16] = test system: MCF7; test: Induction of apoptosis in human MCF7 cells assessed as late apoptotic cells at 1 uM after 48 hrs by Annexin V-FITC/propidium iodide staining based flow cytometry (reference value: 0%); format: functional
[17] = test system: HCC1937; test: Antiproliferative activity against human HCC1937 cells harboring BRCA1 mutant after 72 hrs by MTT assay; format: functional, cell-based; details: HCC1937, 72 h
[18] = test system: MCF7; test: Potency index, ratio of m-AMSA IC50 to compound IC50 for human MCF7 cells; format: functional
[19] = test system: MCF7; test: Cell cycle arrest in human MCF7 cells assessed as accumulation at G0/G1 phase at 5 uM after 24 hrs by propidium iodide staining based flow cytometry (reference value: 17.67 +/- 1.25%); format: functional
[20] = test system: MCF7; test: Downregulation of CyclinD protein expression in human MCF7 cells up to 10 uM after 24 hrs by Western blot method; format: functional, cell-based
[21] = Half life in rat liver microsomes at 1.11 uM preincubated for 5 mins followed by NADPH addition by LC-MS/MS analysis; format: ADME, microsome
[22] = test system: MCF7; test: Upregulation of cleaved caspase-8 protein expression in human MCF7 cells after 24 hrs by Western blot method; format: functional, cell-based
[23] = test system: MCF7; test: Cell cycle arrest in human MCF7 cells assessed as accumulation at S phase at 10 uM after 24 hrs by propidium iodide staining based flow cytometry (reference value: 59.72 +/- 2.98%); format: functional
[24] = test system: MCF7; test: Downregulation of CyclinE protein expression in human MCF7 cells up to 10 uM after 24 hrs by Western blot method; format: functional, cell-based
[25] = test system: MCF7; test: Induction of apoptosis in human MCF7 cells assessed as necrotic cells at 1 uM after 48 hrs by Annexin V-FITC/propidium iodide staining based flow cytometry (reference value: 0%); format: functional
[26] = test system: MCF7; test: Induction of apoptosis in human MCF7 cells assessed as early apoptotic cells at 1 uM after 48 hrs by Annexin V-FITC/propidium iodide staining based flow cytometry (reference value: 0.108%); format: functional
[27] = molecular target: Cytochrome P450 2C9 (Homo sapiens, UniProt P11712); test: Inhibition of CYP2C9 in human liver microsomes preincubated for 10 mins followed by NADPH/substrate addition measured after 20 mins by LC-MS/MS analysis
Sequence of Cytochrome P450 2C9 (P11712 whole entry): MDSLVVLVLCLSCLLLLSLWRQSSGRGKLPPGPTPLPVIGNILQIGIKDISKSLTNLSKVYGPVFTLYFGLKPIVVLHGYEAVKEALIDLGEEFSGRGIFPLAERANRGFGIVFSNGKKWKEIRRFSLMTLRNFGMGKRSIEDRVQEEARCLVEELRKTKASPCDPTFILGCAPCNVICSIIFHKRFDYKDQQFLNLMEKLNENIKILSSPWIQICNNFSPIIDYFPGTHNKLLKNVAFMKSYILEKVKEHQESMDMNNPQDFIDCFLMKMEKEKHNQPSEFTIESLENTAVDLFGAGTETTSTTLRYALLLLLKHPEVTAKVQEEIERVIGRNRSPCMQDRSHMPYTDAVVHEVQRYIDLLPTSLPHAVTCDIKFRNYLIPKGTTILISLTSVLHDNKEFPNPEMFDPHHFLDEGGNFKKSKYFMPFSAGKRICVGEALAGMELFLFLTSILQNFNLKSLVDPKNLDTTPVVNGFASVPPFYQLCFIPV

[28] = test system: MCF7; test: Cell cycle arrest in human MCF7 cells assessed as accumulation at G2/M phase at 10 uM after 24 hrs by propidium iodide staining based flow cytometry (reference value: 22.61 +/- 1.55%); format: functional
[29] = test system: MCF7; test: Upregulation of cleaved PARP protein expression in human MCF7 cells after 24 hrs by Western blot method; format: functional, cell-based
[30] = molecular target: T1, DNA topoisomerase 1 (Homo sapiens) (UniProt P11387); test: Inhibition of human topoisomerase-1 at 2 to 100 uM using supercoiled pBR322 DNA as substrate after 10 to 15 mins by ethidium bromide staining based electrophoresis method
T1 sequence (whole entry): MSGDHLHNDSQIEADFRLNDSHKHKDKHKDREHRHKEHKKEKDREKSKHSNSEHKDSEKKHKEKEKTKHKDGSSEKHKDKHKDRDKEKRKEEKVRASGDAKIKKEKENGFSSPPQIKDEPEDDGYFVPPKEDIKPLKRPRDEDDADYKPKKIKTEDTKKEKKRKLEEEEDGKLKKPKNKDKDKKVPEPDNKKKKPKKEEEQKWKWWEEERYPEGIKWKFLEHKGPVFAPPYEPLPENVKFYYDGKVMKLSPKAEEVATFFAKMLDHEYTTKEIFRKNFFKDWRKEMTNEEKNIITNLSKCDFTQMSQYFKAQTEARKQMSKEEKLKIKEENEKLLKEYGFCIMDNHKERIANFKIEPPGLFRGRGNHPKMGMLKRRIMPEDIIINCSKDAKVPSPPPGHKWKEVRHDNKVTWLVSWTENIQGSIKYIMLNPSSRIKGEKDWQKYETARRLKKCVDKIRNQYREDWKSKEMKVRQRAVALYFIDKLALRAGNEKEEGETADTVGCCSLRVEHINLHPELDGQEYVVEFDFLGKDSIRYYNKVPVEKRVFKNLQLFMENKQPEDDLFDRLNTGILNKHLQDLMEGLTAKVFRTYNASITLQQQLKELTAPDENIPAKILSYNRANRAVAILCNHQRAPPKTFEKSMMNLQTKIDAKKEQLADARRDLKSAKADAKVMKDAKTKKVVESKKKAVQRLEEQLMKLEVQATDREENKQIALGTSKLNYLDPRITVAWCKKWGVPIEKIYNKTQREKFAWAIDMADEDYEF

Sequence of Cytochrome P450 3A4 (P08684 whole entry): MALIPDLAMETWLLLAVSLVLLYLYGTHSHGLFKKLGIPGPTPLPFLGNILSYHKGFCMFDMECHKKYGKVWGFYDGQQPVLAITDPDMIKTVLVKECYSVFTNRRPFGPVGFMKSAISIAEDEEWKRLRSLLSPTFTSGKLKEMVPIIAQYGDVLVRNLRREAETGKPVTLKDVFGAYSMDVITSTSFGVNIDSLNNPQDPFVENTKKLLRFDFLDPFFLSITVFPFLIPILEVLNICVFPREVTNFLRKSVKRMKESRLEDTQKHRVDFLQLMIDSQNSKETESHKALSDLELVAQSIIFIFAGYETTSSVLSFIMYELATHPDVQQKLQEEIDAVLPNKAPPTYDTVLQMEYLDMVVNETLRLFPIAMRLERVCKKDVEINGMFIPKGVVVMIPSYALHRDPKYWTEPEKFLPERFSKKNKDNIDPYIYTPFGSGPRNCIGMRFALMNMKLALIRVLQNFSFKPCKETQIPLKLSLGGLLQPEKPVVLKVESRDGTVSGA

IC50 [1]: 6.8 µM
IC50 [17]: 0.83 µM
half-life at 1.11 µM [21]: 34.8 min
IC50 [27]: 2.2 µM
inhibition [30]: Active
SMILES: Cc1cccc2c(Nc3cccc(-c4nc5c(C(N)=O)cccc5[nH]4)c3)c3ccccc3nc12
Activity [2]: 36.4%
Activity [3]: 39.1%
Activity [4]: Dose-dependent effect
Activity [5]: Dose-dependent effect
Activity [6]: 42.9%
Activity [7]: Active
Activity [8]: Dose-dependent effect
Activity [9]: 0.327%
Activity [10]: Active
Activity [11]: Dose-dependent effect
Activity [12]: 19.96%
Activity [13]: Active
Activity [14]: Dose-dependent effect
Activity [15]: 14.08%
Activity [16]: 22.2%
Ratio IC50 [18]: 4
Activity [19]: 43.62%
Activity [20]: Active
Activity [22]: Dose-dependent effect
Activity [23]: 30.87%
Activity [24]: Active
Activity [25]: 0.531%
Activity [26]: 34.4%
Activity [28]: 10.83%
Activity [29]: Dose-dependent effect

From ChEMBL document CHEMBL4130375, “Design, synthesis and biological evaluation of 4-amidobenzimidazole acridine derivatives as dual PARP and Topo inhibitors for cancer therapy” (Eur J Med Chem, 2017)
